Experimental data taken from patent US20140299020A1, “WATER-BASED BLACK INK COMPOSITION, INKJET RECORDING METHOD USING SAME, AND COLORED BODY” (NIPPON KAYAKU KABUSHIKI KAISHA, priority 2011, published 2014).

Assay: Solubility with respect to water at room temperature
Type: physicochemical
Conditions: lithium salt

Compound | solubility [mg/mL]
Nc1c(N=Nc2ccc3c(O)c(N=Nc4ccc(N=Nc5ccc(S(=O)(=O)O)cc5)cc4S(=O)(=O)O)c(S(=O)(=O)O)cc3c2S(=O)(=O)O)cc(S(=O)(=O)O)c2cc(S(=O)(=O)O)c(N=Nc3ccc([N+](=O)[O-])cc3S(=O)(=O)O)c(O)c12 [Compound 1] | ≥ 100
Nc1c(N=Nc2ccc3c(O)c(N=Nc4ccc(N=Nc5ccc(S(=O)(=O)O)cc5)cc4S(=O)(=O)O)c(S(=O)(=O)O)cc3c2S(=O)(=O)O)cc(S(=O)(=O)O)c2cc(S(=O)(=O)O)c(N=Nc3ccc(S(=O)(=O)O)cc3[N+](=O)[O-])c(O)c12 [Compound 3] | ≥ 100
Cc1cc(N=Nc2c(S(=O)(=O)O)cc3c(S(=O)(=O)O)c(N=Nc4cc(S(=O)(=O)O)c5cc(S(=O)(=O)O)c(N=Nc6ccc([N+](=O)[O-])cc6S(=O)(=O)O)c(O)c5c4N)ccc3c2O)c(OCCCS(=O)(=O)O)cc1N=Nc1ccc([N+](=O)[O-])cc1S(=O)(=O)O [Compound 16] | ≥ 100
